# Measured values from patent US9919034B2, “Methods of treating and prophylactically protecting mammalian patients infected by viruses classified in Baltimore group V” (priority 2014, dated 2018).
# pEC50: −log10 of the molar value. Read-outs that look alike come from different tables or passages of the source.
# Experiments:
# [1] = system: NHBE cells
# [2] = system: adenovirus 2, strain Miller; assay: Adenovirus yield in NHBE cells (titers in A-549 cells); format: cell-based; conditions: for reduction in virus titers: vs untreated infected controls
# [3] = system: NHBE cells; assay: Microscopy evaluation of treated NHBE cells (RSV study toxicity controls); conditions: sham infected
# [4] = system: RV-14 (strain 1059); assay: RV-14 yield in NHBE cells (titers in HeLa-Ohio-1 cells); format: cell-based, rhinovirus-14
# [5] = system: NHBE cells; assay: Microscopy evaluation of treated NHBE cells (RV-14 study toxicity controls)
# [6] = system: Vero 76 cells; assay: Toxicity in Vero 76 cells (crystal violet staining density)
# [7] = system: vaccinia, strain WR; assay: microbe, parasite or virus in culture; format: cell-based; conditions: read-out: EC50 (concentration reducing plaque numbers by 50%)
# [8] = system: RSV A2; assay: RSV yield in NHBE cells (titers in MA-104 cells); format: cell-based; conditions: all treatments (5 μM, 0.5 μM, 0.1 μM), 48 hours post infection
# [9] = system: CHIV
# [10] = system: VEEV; format: cell-based
# [11] = system: A-72 cells; assay: Cytotoxicity of ranpirnase in A-72 cells (morphology); conditions: any of the concentrations tested, 4 days
# [12] = system: NHBE cells; remark: listed apart in the source
# [13] = system: influenza A/California/07/2009(H1N1)pdm09 virus; format: cell-based
# [14] = system: MERS-CoV virus; format: cell-based
# [15] = system: tRNA; conditions: Lin et al., 1994; cited from earlier work
# [16] = system: EBOV
compound,measurement,setting,value
"Nc1ccn([C@H]2CC[C@@H](CO)O2)c(=O)n1 [2′3′-dideoxycytidine, reference compound]",microscopy evaluation of treated NHBE cells (toxicity),[1],no toxicological phenomena
same,inhibition of virus replication (positive control),"[2]; NHBE cells, adenovirus MOI 0.1",inhibited virus replication as expected
same,microscopy evaluation of treated NHBE cells (toxicity),[3],no toxicological phenomena
"CCOC(=O)c1ccc(OCCC2CCN(c3ccc(C)nn3)CC2)cc1 [pirodavir, reference compound]",activity against RV-14,"[4]; 0.0032 μg/ml, NHBE cells",inactive
same,inhibition of virus replication (positive control),[4]; 10 and 3.2 μg/ml,inhibited virus replication as expected
same,microscopy evaluation of treated NHBE cells (toxicity),[5],no toxicological phenomena
"Nc1ccn(C[C@@H](CO)OCP(=O)(O)O)c(=O)n1 [cidofovir, reference compound]",toxicity,[6]; dilutions used in the assay,Neither ranpirnase nor cidofovir was toxic
same,pEC50,"[7]; Orthopoxvirus vaccinia, Vero 76, 48 h",5.00
ranpirnase,toxicity,[6]; 100 μM,not toxic
same,toxicity,[6]; dilutions used in the assay,Neither ranpirnase nor cidofovir was toxic
same,"reduction in virus titers compared to untreated, infected controls",[8],2.3 log
same,virus titers after treatment,[8],undetectable levels
same,SI (CC50/IC50),[9],over 18
same,inhibition of CHIV,[9],robust inhibition
same,microscopy evaluation of treated NHBE cells (toxicity),[1],no toxicological phenomena
same,inhibition of VEEV,[10],robust inhibition
same,reduction in virus titers,[2]; 5 μM,~1 log
same,reduction in virus titers,[2]; 10 μM,~1 log
same,drop in virus titer,"[2]; 50 μM, vs placebo",approximately three
same,virus titers after treatment,[2]; all treatments except the lowest dose,undetectable levels
same,reduction in virus titers,"[4]; 1 μM, 4 days post infection",~1 log
same,drop in virus titer,"[4]; 5 μM, 4 days post infection",~1.67 log 10
same,drop in virus titer,"[4]; 10 μM, 4 days post infection",~1.67 log 10
same,drop in virus titer,"[4]; 50 μM, 4 days post infection",~1.67 log 10
same,microscopy evaluation of treated NHBE cells (toxicity),[5],no toxicological phenomena
same,cytotoxic effect (visual morphology),[11],no apparent cytotoxic effect
same,viability of NHBE cells,[12],did not decrease the viability
same,activity against influenza A/California/07/2009(H1N1)pdm09 virus (virus titer),[13],statistically significant and dose-dependent
same,activity against MERS-CoV virus compared with SARS protease inhibitor and Infergen (viral titer),[14],far more active
same,microscopy evaluation of treated NHBE cells (toxicity),[3],no toxicological phenomena
same,degradation of tRNA,[15],degrades tRNA very effectively
same,pEC50,[7],5.42
same,SI (CC50/IC50),[16],40-77
same,inhibition of EBOV,[16],robust inhibition
